Laboratory results reported in ChEMBL document CHEMBL2375291, “Discovery of a series of novel 5H-pyrrolo[2,3-b]pyrazine-2-phenyl ethers, as potent JAK3 kinase inhibitors” (Bioorg Med Chem Lett, 2013).

What was measured:
[1] = biological target: Tyrosine-protein kinase JAK1 (Homo sapiens, UniProt P23458)
[2] = biological target: T1, Tyrosine-protein kinase JAK3 (Homo sapiens, UniProt P52333)
T1 sequence (P52333 whole entry): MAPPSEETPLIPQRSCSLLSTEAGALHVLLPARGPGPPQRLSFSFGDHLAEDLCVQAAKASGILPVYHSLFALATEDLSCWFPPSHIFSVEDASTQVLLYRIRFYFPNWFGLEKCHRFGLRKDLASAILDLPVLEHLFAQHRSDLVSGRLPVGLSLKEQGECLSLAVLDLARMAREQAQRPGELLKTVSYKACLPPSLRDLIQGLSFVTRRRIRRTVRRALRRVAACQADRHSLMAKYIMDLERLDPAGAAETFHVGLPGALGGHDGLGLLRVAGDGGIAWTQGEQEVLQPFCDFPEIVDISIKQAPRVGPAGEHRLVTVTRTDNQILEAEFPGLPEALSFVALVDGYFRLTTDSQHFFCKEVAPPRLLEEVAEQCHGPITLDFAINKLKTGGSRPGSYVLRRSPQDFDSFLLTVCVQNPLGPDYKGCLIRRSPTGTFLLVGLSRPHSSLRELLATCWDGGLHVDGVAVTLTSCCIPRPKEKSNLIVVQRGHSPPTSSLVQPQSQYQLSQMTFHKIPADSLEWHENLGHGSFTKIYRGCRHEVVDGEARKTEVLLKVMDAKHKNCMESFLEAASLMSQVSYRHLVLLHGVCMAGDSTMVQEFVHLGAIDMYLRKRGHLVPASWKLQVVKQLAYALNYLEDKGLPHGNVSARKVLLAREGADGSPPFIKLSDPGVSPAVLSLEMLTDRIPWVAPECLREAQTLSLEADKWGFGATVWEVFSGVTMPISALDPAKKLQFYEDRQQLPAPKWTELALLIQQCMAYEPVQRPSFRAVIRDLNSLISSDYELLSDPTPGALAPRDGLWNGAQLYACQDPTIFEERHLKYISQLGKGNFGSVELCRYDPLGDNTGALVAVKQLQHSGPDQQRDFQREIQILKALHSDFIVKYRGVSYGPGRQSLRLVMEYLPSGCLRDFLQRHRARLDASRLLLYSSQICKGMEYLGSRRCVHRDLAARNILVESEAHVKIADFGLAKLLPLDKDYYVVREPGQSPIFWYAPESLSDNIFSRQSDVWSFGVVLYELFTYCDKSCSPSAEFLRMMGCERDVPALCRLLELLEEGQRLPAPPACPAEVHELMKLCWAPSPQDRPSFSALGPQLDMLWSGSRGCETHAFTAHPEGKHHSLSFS

Row | Structure (SMILES) | IC50 [1] | IC50 [2]
1 | CC(C)NC(=O)c1c[nH]c2ncc(Oc3ccccc3)nc12 | 0.84 µM | 
2 | Cc1cccc(Oc2cnc3[nH]cc(C(=O)NC(C)C)c3n2)c1 | 2.15 µM | 
3 | CCc1cccc(Oc2cnc3[nH]cc(C(=O)NC(C)C)c3n2)c1 | 4.16 µM | 
4 | COc1cc(OC)cc(Oc2cnc3[nH]cc(C(=O)NC(C)C)c3n2)c1 | 8.22 µM | 
5 | CC(C)NC(=O)c1c[nH]c2ncc(Oc3cccc(C#N)c3)nc12 | 3.19 µM | 
6 | CC(C)NC(=O)c1c[nH]c2ncc(Oc3ccc(C#N)cc3)nc12 | 3.47 µM | 
7 | Cc1ccccc1Oc1cnc2[nH]cc(C(=O)NC(C)C)c2n1 | 5.09 µM | 
8 | CC(NC(=O)c1c[nH]c2ncc(Oc3ccccc3)nc12)C1CC1 (stereo not drawn) | 0.22 µM | 
9 | CC(C)NC(=O)c1c[nH]c2ncc(Oc3ccc4c(c3)CCC4)nc12 | 3.32 µM | 
10 | CC(=O)N[C@H]1CCc2ccc(Oc3cnc4[nH]cc(C(=O)NC(C)C)c4n3)cc21 | 4.39 µM | 
11 | CC(=O)N[C@@H]1CCc2ccc(Oc3cnc4[nH]cc(C(=O)NC(C)C)c4n3)cc21 | 6.3 µM | 
12 | CC(=O)N[C@@H]1CCc2ccc(Oc3cnc4[nH]cc(C(=O)N[C@@H](C)C5CC5)c4n3)cc21 | 0.863 µM | 
13 | CC(=O)N[C@@H]1CCc2ccc(Oc3cnc4[nH]cc(C(=O)N[C@H](C)C5CC5)c4n3)cc21 | 2.08 µM | 
14 | CC(=O)N[C@@H]1CCc2ccc(Oc3cnc4[nH]cc(C(=O)N[C@H](C)C(=O)N5CC(C#N)C5)c4n3)cc21 | 11.6 µM | 112 nM
15 | CC(=O)N[C@@H]1CCc2ccc(Oc3cnc4[nH]cc(C(=O)N[C@@H](C(=O)N5CC(C#N)C5)C5CC5)c4n3)cc21 | 0.262 µM | 5 nM
16 | CC(=O)N[C@@H]1CCc2ccc(Oc3cnc4[nH]cc(C(=O)N[C@@H](C(=O)N5CC(C#N)C5)C(C)(C)C)c4n3)cc21 | 0.863 µM | 
